Laboratory results reported in ChEMBL document CHEMBL1157539, “Thousands of chemical starting points for antimalarial lead identification” (Nature, 2010).

Each molecule was assayed on Plasmodium falciparum (assay: GSK_TCMDC: Inhibition of Plasmodium falciparum 3D7 in whole erythrocytes, using parasite LDH activity as an index of growth.). Conditions: Plasmodium falciparum, 3D7.
Assay type: functional, organism-based

In order of rising XC50:
1. CC1(C)N=C(N)N=C(NOCCCCCCONC2=NC(N)=NC(C)(C)N2)N1  33.3 nM
2. CC[C@H]1CN2CC[C@H]1C[C@H]2[C@H](O)c1cc(/C=C/c2ccccc2)nc2ccc(OC)cc12  42.7 nM
3. CCCCN(C)CC#Cc1ccc2[nH]c(C)c(Cl)c(=O)c2c1  130 nM
4. CCn1ccc2c(N3CCCS3(=O)=O)cc(C(=O)N[C@@H](Cc3ccccc3)[C@H](O)CNC3CCCCC3)cc21  137 nM
5. Cn1c(NCc2cc(F)cc3c2OCOC3)nc2cc(Nc3ccnc(Nc4cccc(CS(C)(=O)=O)c4)n3)ccc21  149 nM
6. CCN(Cc1ccccc1)CC(O)c1ccc(Cl)c(Cl)c1 (stereo unspecified)  182 nM
7. CCNCCCC(C)Nc1ccnc2cc(Cl)ccc12 (stereo unspecified)  200 nM
8. O=C(c1cc(C(=O)Nc2ccc(F)cc2)c(=O)n(-c2ccc(F)cc2)c1)c1cc(Cl)ccc1O  219 nM
9. Clc1ccc(Cc2nc3ccccc3[nH]2)cc1Cl  246 nM
10. N#Cc1cccc(NC(=O)Nc2cccc(-c3ccc(-c4nc5cc(C(F)(F)F)ccc5[nH]4)cc3)c2)c1  247 nM
11. CC(C)Cn1c(Sc2ccc(C#N)c([N+](=O)[O-])c2)nnc1-c1cccc(Cl)c1  301 nM
12. COCCOc1ccc(Nc2nccc(-c3c(-c4cccc(NC(=O)c5c(F)cccc5F)c4)nn4ccccc34)n2)cc1Cl  356 nM
13. CN1CCCc2ccc(NC(=O)Nc3ccc(-c4ccccc4)cc3)cc2C1  380 nM
14. COc1ccccc1C1CCN(C2CCC(NC(=O)c3cc(-c4ccc(Cl)cc4)cs3)CC2)CC1 (stereo unspecified)  383 nM
15. COc1ccc(-c2ccc3c(-c4ccc(F)cc4)cnc(N)c3c2)cn1  388 nM
16. CC1(C)[C@H]2CC[C@@H](CNc3nc(NCCc4c[nH]cn4)nc(Nc4ccc5c(c4)OCO5)n3)[C@@H]1C2  537 nM
17. O=C(/C=C/c1ccc(Cl)c(Cl)c1)NC1CCN(CCCNC(=O)c2cccc(Cl)c2)CC1  659 nM
18. O=C(Nc1ccc2c(c1)CNCC2)c1ccc(-c2ccc(Cl)cc2)cc1  662 nM
19. Cc1ccc(C)c(NC(=O)NC2CCN(c3ccnc(Nc4ccc(F)cc4)n3)C2)c1 (stereo unspecified)  675 nM
20. CCCCN1CCN(c2cc(NS(=O)(=O)c3cccc(C(=O)Nc4ccc(C(F)(F)F)cc4)c3)ccc2OC)CC1  685 nM
21. CCc1cc(NC2CCN(C)CC2)nc(Nc2ccc(C)cc2)n1  694 nM
22. Cc1cc(N2CCN(C3CCCCC3)CC2)nc2cccc(O)c12  701 nM
23. O=C(O[C@H]1CN[C@H](C#Cc2cc3c(Nc4ccc(OCc5cccc(F)c5)c(Cl)c4)ncnc3s2)C1)N1CCCC1  707 nM
24. CSc1ccc(NC(=O)Nc2cc(C)nc3ccccc23)cc1  713 nM
25. COc1ccc2c(NN=Cc3cccc(Cl)c3)ccnc2c1  716 nM
26. CCCCCCCCCCNCC(O)c1ccc(O)c(C(=O)OC)c1 (stereo unspecified)  717 nM
27. S=C(NN=Cc1ccccn1)NC1CC2C=CC1C2 (stereo unspecified)  721 nM
28. CCNc1cc(C)nc(Nc2ccc(C)cc2)n1  730 nM
29. OC1(C(F)(F)F)CC(c2ccccc2)=NN1c1nncc(-c2ccccc2)n1 (stereo unspecified)  735 nM
30. Cc1ccc2c(c1)c(C1CCN(C(=O)c3ccc([N+](=O)[O-])o3)CC1)cn2C  746 nM
31. CCCOc1cc(OCCC)cc(-c2ccc(C(=O)Nc3ccc4ccc(C)nc4c3)c(=O)[nH]2)c1  750 nM
32. O=C(Cn1c(CCc2cccc(F)c2F)nc(=O)c2ccccc21)N(CCN1CCCCC1)Cc1ccc(-c2ccc(C(F)(F)F)cc2)cc1  757 nM
33. CC1(C)C2C=C(CN3CCC(NC(=O)Nc4ccc(Cl)c(Cl)c4)CC3)C1CC2 (stereo unspecified)  761 nM
34. COC(=O)CCCOc1cc(Cc2cnc(N)nc2N)cc(OC)c1OC  767 nM
35. CS(=O)(=O)CCNCc1nc(-c2ccc3ncnc(Nc4ccc(OCc5cccc(F)c5)c(Cl)c4)c3c2)cs1  771 nM
36. COC(=O)[C@@H](NC(=O)[C@@H](Nc1ccc(C#N)c2ccccc12)C(C)(C)C)c1ccc(O)cc1  777 nM
37. O=C(CSc1nc(-c2ccccc2Cl)ns1)Nc1cccc(Cl)c1  787 nM
38. Cc1nc(N/C(N)=N/C(=O)NC2CCCCC2)nc2ccccc12  791 nM
39. O=C(c1cc2ccccc2o1)N1CCc2cc3nccc(N4CCN5CCC[C@H]5C4)c3cc21  812 nM
40. CC(C)(C)c1ccc(S(=O)(=O)Nc2cc(Cl)ccc2Cn2ccc(N3CCNCC3)nc2=O)cc1  827 nM
41. Cc1cccc2nc(-c3cccc(-c4ccc(NC(=O)C5CCN(C)CC5)cc4)c3)[nH]c12  829 nM
42. CCCCCN1CCC(NC(=O)c2ccc(C(=O)Nc3ccc(C(C)C)cc3)cc2)CC1  845 nM
43. Cc1c(Cc2ccc(F)cc2)c(Cl)nc2nc(N)nc(N)c12  861 nM
44. Cc1cc(N2CCN(C(=O)OC(C)(C)C)CC2)ccc1N  865 nM
45. CN(C)CCCOc1ccc(CN2CC[C@H](NC(=O)c3ccc(Cl)c(Cl)c3)C2)c2ccccc12  879 nM
46. NCc1ccc(-c2ccccc2CN(C(=O)Nc2ccccc2)C2CCN(Cc3ccccc3)CC2)cc1  880 nM
47. CN(C)c1ccc(CN2CCC(NC(=O)c3ccc(-c4ccccc4Cl)s3)CC2)cc1  899 nM
48. CC(C)Oc1cc2c(cc1NS(=O)(=O)c1ccc(-c3ccc(Cl)cc3)cc1F)CCN(C)CC2  919 nM
49. Cc1cc(N2CCCC2)nc(Nc2ccc(NC(=O)c3ccccc3F)cc2)n1  922 nM
50. CN1CCCN(Cc2cccc(-c3ccc(NC(=O)c4cccc(Cl)c4)cc3)c2)CC1  927 nM
51. COC(=O)/C=C/c1ccc(CCC(C)NCC(O)c2cccc(Cl)c2)cc1 (stereo unspecified)  935 nM
52. CNC(=O)c1ccccc1Nc1nc(Nc2ccc(C(=O)O)cc2)ncc1Cl  950 nM
53. O=[N+]([O-])c1cc(/C=N/Nc2nc3ccccc3[nH]2)ccc1O  954 nM
54. CN1CCC(Oc2ccc(NC(=O)c3ccc4c(=O)n(Cc5ccccc5)cnc4c3)cc2Cl)CC1  954 nM
55. O=C(C=Cc1ccc(Cl)c(Cl)c1)NCCCCCN1CCCC(CCCNS(=O)(=O)c2ccc(Br)cc2)C1 (stereo unspecified)  955 nM
56. Cc1ccc(Nc2nc3cc(N(C)c4ccnc(Nc5cccc(CS(C)(=O)=O)c5)n4)ccc3o2)cc1  973 nM
57. Nc1cnc(C#Cc2cc3ncnc(N(CCN4CCOCC4)c4ccc(OCc5cccc(F)c5)c(Cl)c4)c3s2)cn1  1050 nM
58. CC(C)CNCc1cccc(-c2ccc(CNc3ccc4ncccc4c3)cc2)c1  1060 nM
59. CCC(CC)CN1C(=O)C(C)(c2ccccc2)N=C1N (stereo unspecified)  1060 nM
60. CN(CCc1ccccn1)c1cccc2c1nc(-c1cccnc1)n2CCNCc1ccccc1  1060 nM
61. Cc1sc(N2CCN(C)CC2)nc1C(=O)Nc1ccc(F)cc1C(F)(F)F  1070 nM
62. Cc1cc2cc(NC(=O)Nc3ccnc4ccccc34)ccc2n1C  1090 nM
63. O=C(Nc1ccc(Cl)cc1)Nc1ccc2nonc2c1  1100 nM
64. Cc1cc(N[C@@H](Cc2ccccc2)C(=O)NC2CCCC2)nc(NCCOc2ccccc2)n1  1110 nM
65. COc1ccc(C(=O)N2CCC(C(=O)NC(C)c3ccc(-n4ccnc4)cc3)CC2)c2ccccc12 (stereo unspecified)  1130 nM
66. CC(=O)C1(c2ccccc2)CCN(CCC(NC(=O)c2cc(C(F)(F)F)cc(C(F)(F)F)c2)c2ccc(Cl)c(Cl)c2)CC1 (stereo unspecified)  1190 nM
67. CC(C)(C)c1nn(-c2ccccc2)c2[nH]c(=O)c(CNC3CCCCC3)cc12  1250 nM
68. CN(C)CCOc1cc(NC(=O)/C=C/c2cccc3ccccc23)ccc1I  1260 nM
69. CCc1ccc(C2CCN(CCCCNC(=O)c3ccc(NC(=O)c4ccc(Cl)cc4)cc3)CC2)c(OCCO)c1  1390 nM
70. O=C(NCCN1CCCC1)c1cccc(-c2ccc(-c3nc4cc(F)ccc4[nH]3)s2)c1  1530 nM
71. CN1CCN(CC2(Nc3nccc(NCCc4cn(C)c5ccccc45)n3)CCCCC2)CC1  1810 nM
